{
  "source": "patent US20230355646A1",
  "about": "“AUTOPHAGY ACTIVATOR” (Resonac Corporation, priority 2020, published 2023)",
  "system": "ATG5 gene",
  "test": "ATG5 gene expression promoting effect in human neuroblastoma SH-SY5Y in the presence of amyloid β",
  "type": "cell-based",
  "procedure": "In the presence of an autophagy activator, the expression levels of the LC3 gene, ATG5 gene, and ATG7 gene in human neuroblastoma (SH-SY5Y; obtained from ATCC) were measured by the following test method, and the effect of promoting the expression of the LC3 gene, ATG5 gene, and ATG7 gene by an autophagy activator was evaluated.\nIn the following examples and comparative examples, tests were performed by adding amyloid β, which is known to cause a decrease in autophagy in nerve cells, to each medium.\nSH-SY5Y cells were prepared at a seeding density of 10000 cells/cm^2 and cultured for 24 hours in D-MEM medium/Ham's F-12 medium (manufactured by Sigma-Aldrich) to which 10% fetal bovine serum (manufactured by MP Biomedicals) was added. Next, in Example 15, the methyl hesperidin DMSO solution was added to the medium such that the final concentration of methyl hesperidin was 10^−3% (V/V) and the final concentration of DMSO was 0.1% (V/V). […]\nThen, using Nucleospin (registered trademark) RNA kit (manufactured by Takara Bio Inc.), RNA was extracted from SH-SY5Y cells in each example, and cDNA was synthesized from the obtained RNA. Next, using this cDNA as a template, by quantitative real-time PCR, the expression level of each gene was quantified using primers (manufactured by Takara Bio Inc.) specific to the LC3 gene, ATG5 gene, and ATG7 gene, respectively. […]",
  "data": [
    {"molecule": "COc1ccc([C@@H]2CC(=O)c3c(O)cc(O[C@@H]4O[C@H](CO[C@@H]5O[C@@H](C)[C@H](O)[C@@H](O)[C@H]5O)[C@@H](O)[C@H](O)[C@H]4O)cc3O2)cc1O", "note": "[Comparative Example 2, hesperidin]", "values": [
      {"measurement": "expression level of the ATG5 gene (in words)", "setting": "SH-SY5Y cells with amyloid β, compared to DMSO and amyloid β of Comparative Example 5", "result": "increased"},
      {"measurement": "Relative gene expression level ATG5", "setting": "SH-SY5Y cells, 20 μM amyloid β present, 10^−2% (V/V) methyl hesperidin or hesperidin, additional ingredient where in the example, 48 hours, Reference Example 3 = 1.00", "result": 3.29}
    ]}
  ]
}
